# Laboratory results as given in patent US20180265934A1, “COINCIDENCE REPORTER GENE SYSTEM” (The United States of America, as represented by the …, priority 2013, published 2018).
# Like-named read-outs stand apart in the source and are kept apart here.
# Legend:
# [1] = test system: cAMP-response element (CRE), adenylyl cyclase signaling; experiment: Compound test, 24-point titration, 4×CRE-driven FLuc-P2A-RLuc (pCI-6.24), 384-well; format: cell-based; details: PTC124 on FLuc, BTS on RLuc; relative to non-treated control
# Procedure: (§1) For the compound test, forskolin, PTC124 and BTS were prepared in a 24-point intraplate titration format and pre-diluted in the cell culture medium. Purified pCI-6.24 construct was transfected into GRIPTITE 293 MSR cells (Life Technologies). Sixteen hours post transfection, cells were trypsinized and then dispensed at 2,000 cells/15 μL/well in 384-well tissue culture treated white/solid bottom plates (Greiner Bio-One North America). Five μL of pre-diluted compound was transferred into assay plates, resulting in a final concentration ranging from 0.027 nM to 227 μM (forskolin) and 0.011 nM to 91 μM (PTC124 and BTS). The assay plates were incubated at 37° C. for 10 hours. FLuc and RLuc activities were then detected using DUAL-GLO reagent (Promega) and a VIEWLUX plate reader (PerkinElmer). Concentration-response curves and concentrations of half-maximal activity (EC50) for each compound were generated by using PRISM 4 software (GraphPad Software, Inc., La Jolla, Calif.).
# [2] = test system: PARK2 (Parkin) gene expression; experiment: Compound library screening, Parkin coincidence reporter cell line (FLuc-P2A-NLuc in PARK2 locus, BE(2)-M17 cells), 1536-well; format: cell-based, human; details: 24 h, titration
# Procedure: Construction of the Parkin coincidence reporter cell line by TALEN-mediated genome editing was carried out as follows. To generate a double-strand cleavage of the genomic DNA in the first codon of the PARK2 gene, constructs encoding transcription activator-like effector nuclease (TALEN) pairs (Right and Left) encoding components of the heterodimeric FokI nuclease were generated as described by Huang et al., Nature Biotechnology, 29: 699-700 (2011). The TALEN pair was designed to generate a double-strand cleavage at or near the first translation codon (ATG) within the Parkin gene. These constructs were transfected with Lipofectamine LTX (Life Technologies) into BE(2)-M17 cells (ATCC) […] along with a GFP-expressing marker plasmid and the coincidence reporter donor plasmid. After 48 hours of incubation in a tissue culture incubator, GFP-positive cells were sorted by FACS analysis and single clones were isolated and expanded. Once sufficient cell populations for each clone were achieved, analysis of correct genomic insertion of the Fluc-P2A-NLuc-PEST-PolyA coincidence reporter cassette that replaced the “ATGATAG” (SEQ ID NO: 362) sequence at the […] of the PARK2 gene exon 1 was ascertained by PCR and DNA sequencing of genomic DNA preparations (QIAGEN).
# Compound library screening in 1536-well plates was carried out as follows. The Parkin coincidence reporter cell line was seeded at a density of 2000 cell/well into white, solid bottom, tissue-culture treated (Greiner Bio-One), 1536-well microplates in a total of 5 μL/well of culture medium. After a 16 hour incubation in a tissue-culture incubator, a compound pin tool (Wako) was used to transfer 20 nL of compound dissolved in DMSO for library plates to the assay plates. Compounds were present in either a 6 or 12-point titration in the library plates. DMSO vehicle, CCCP, and PTC-124 were also added to the designated control well. After a 24 hour incubation in the tissue culture incubator, the volume in each well of both plates was reduced to 2 μL with a microplate aspiration system (BioTek) and then 2 μL of Firefly Luciferase assay reagent (Promega) was added to every well each plate and luminescent signal from each well of each plate was measured on a VIEWLUX plate reader (PerkinElmer). Following the first read, 2 μL of NanoLuc assay reagent (Promega) including a proprietary firefly luciferase inhibitor (to quench the firefly reaction) was added to every well of each plate. After a second 15 minute incubation at room temperature, the NanoLuc signal from each well of each plate was measured on the VIEWLUX. Raw luminescent signal is expressed as a % of the positive control (10 uM CCCP for NanoLuc and 500 nM PTC-124 for FLuc).
# Parkin expression = details: previously demonstrated, Bouman et al. 2011; cited from earlier work
# [3] = test system: cAMP-response element (CRE) / CREB pathway; experiment: LOPAC1280 qHTS, 4×CRE-driven FLuc-P2A-RLuc coincidence reporter (pCI-6.24) in GripTite 293 MSR cells; format: cell-based; details: for EC50: GripTite 293 MSR
# Procedure: This protocol measures bioluminescence derived from both FLuc and RLuc expression from a single assay. […] Sixteen hours after transfection, cells were trypsinized and then dispensed at 2,000 cells/20 μL/well in 384-well tissue culture treated white/solid bottom plates (Greiner Bio-One North America, Monroe, N.C.). The assay plates were incubated at 37° C. for 10 hours before adding the DUAL-GLO detection reagent (Promega). Luminescence from luciferase activity was detected by using a VIEWLUX plate reader (PerkinElmer, Waltham, Mass.).
# Sixteen hours after transfection, cells were trypsinized and then dispensed at 500 cells/4 μL/well in 1,536-well tissue culture treated white/solid bottom plates (Greiner Bio-One North America) using a multidrop combi dispenser (Thermo Fisher Scientific). […] The assay plates were incubated at 37° C. for 10 hours before adding the DUAL-GLO detection reagent (3.5 μL+3.5 μL for each well) (Promega). Luminescence from luciferase activity was detected by using VIEWLUX (PerkinElmer). Each experimental plate contained forskolin as a positive control and DMSO as a negative control. Percentage activity was defined as the percentage signal relative to forskolin (100%) and DMSO (0%).
# SV40 promoter = experiment: Compound test, SV40-driven FLuc-P2A-RLuc construct (pCI-6.20); format: cell-based; details: pCI-6.20 construct
# Procedure: as §1
# This experiment was repeated with cells transfected with the pCl-6.20 construct, which encoded FLuc-P2A-RLuc under the control of the SV40 […].
# p53 RE = experiment: FLuc2P-NLucP reporter assay, p53 RE-driven construct (pCI-4.38) in HEK293 cells; format: cell-based; details: 10 μM etoposide, 24 h
# Procedure: (§2) The FLuc2P-NLucP reporter assay and compound test was carried out as follows. This protocol measures bioluminescence derived from both FLuc2P and NLucP. The purified DNA construct pCI-4.38 was transfected into HEK293 cells and the cells were cultured as described in Example 1. Sixteen hours after transfection, the cells were trypsinized and then dispensed at 2,000 cells/20 μL/well into two 384-well tissue culture treated white/solid bottom plates (Greiner Bio-One North America). After adding Etoposide (Sigma) or control DMSO, the assay plates were incubated at 37° C. for 24 hours before adding the ONE-GLO or NANO-GLO detection reagents (Promega). Luminescence from luciferase activity was detected by using a VIEWLUX plate reader (PerkinElmer).
# ARE = experiment: FLuc2P-NLucP reporter assay, ARE-driven construct (pCI-4.37) in HEK293 cells; format: cell-based; details: 100 μM tBHQ, 24 h
# Procedure: as §2, with “A” for “The”, “pCI-4.37” for “pCI-4.38”, “cells.” for “cells and the cells were cultured as described in Example 1.”, “and” for “and then”, “tert-Butylhydroquinone (tBHQ)” for “Etoposide”
compound,measurement,setting,value
O=C(O)c1cccc(-c2noc(-c3ccccc3F)n2)c1 [PTC124],effect on reporter activity by reporter stabilization,[1],increase the activity of the reporters
same,coincident reporter response (FLuc and NLuc),[2],do not elicit a coincident reporter response
same,signal obtained through reporter interference,[2],FLuc signal is obtained through reporter interference
N#CC(C#N)=NNc1cccc(Cl)c1 [carbonyl cyanide m-chlorophenyl hydrazone],induction of Parkin expression,Parkin expression,induce Parkin expression
"C=C[C@@]1(C)CC(=O)[C@]2(O)[C@@]3(C)[C@@H](O)CCC(C)(C)[C@@H]3[C@H](O)[C@H](OC(C)=O)[C@@]2(C)O1 [cpd 19, Forkskolin]",Ratio F/R,"[3]; FLuc EC50 / RLuc EC50, Table 5",0.90
same,EC50,"[3]; 10 h, Table 5, coincident activators, FLuc readout, 10 h, ~4 nM to 57 μM, read-out: FLuc EC50",1320 nM
same,EC50,"[3]; 10 h, Table 5, coincident activators, RLuc readout, 10 h, ~4 nM to 57 μM, read-out: RLuc EC50",1470 nM
same,EC50,"[3]; FLuc readout, 1536 interplate format, read-out: Intraplate Forskolin Control Mean",860 nM
same,EC50,"[3]; RLuc readout, 1536 interplate format, read-out: Intraplate Forskolin Control Mean",880 nM
same,activity where reporter expression was driven by the SV40 promoter,SV40 promoter,inactive
"COc1cc([C@@H]2c3cc4c(cc3[C@@H](O[C@@H]3O[C@@H]5CO[C@@H](C)O[C@H]5[C@H](O)[C@H]3O)[C@H]3COC(=O)[C@H]23)OCO4)cc(OC)c1O [etoposide, Etoposide]",reporter output vs DMSO,p53 RE,greater RLU values
"CC(C)(C)c1cc(O)ccc1O [tBHQ, tert-Butylhydroquinone]",reporter output vs DMSO,ARE,greater RLU values
Tunicamycin,induction of Parkin expression,Parkin expression,induce Parkin expression
